Assay results from patent US9796733B2, “Imidazo-pyrazine derivatives useful as soluble guanylate cyclase activators” (Merck Sharp & Dohme Corp., priority 2014, dated 2017).

Target: T1, sGC α1/β1 heterodimer (Homo sapiens, UniProt Q02108+Q02153)
T1 construct: expressed in transfected cells; host or cells: CHO-K1 (clone #7, CHO-K1/sGC)
T1 sequence (Q02108 1-690): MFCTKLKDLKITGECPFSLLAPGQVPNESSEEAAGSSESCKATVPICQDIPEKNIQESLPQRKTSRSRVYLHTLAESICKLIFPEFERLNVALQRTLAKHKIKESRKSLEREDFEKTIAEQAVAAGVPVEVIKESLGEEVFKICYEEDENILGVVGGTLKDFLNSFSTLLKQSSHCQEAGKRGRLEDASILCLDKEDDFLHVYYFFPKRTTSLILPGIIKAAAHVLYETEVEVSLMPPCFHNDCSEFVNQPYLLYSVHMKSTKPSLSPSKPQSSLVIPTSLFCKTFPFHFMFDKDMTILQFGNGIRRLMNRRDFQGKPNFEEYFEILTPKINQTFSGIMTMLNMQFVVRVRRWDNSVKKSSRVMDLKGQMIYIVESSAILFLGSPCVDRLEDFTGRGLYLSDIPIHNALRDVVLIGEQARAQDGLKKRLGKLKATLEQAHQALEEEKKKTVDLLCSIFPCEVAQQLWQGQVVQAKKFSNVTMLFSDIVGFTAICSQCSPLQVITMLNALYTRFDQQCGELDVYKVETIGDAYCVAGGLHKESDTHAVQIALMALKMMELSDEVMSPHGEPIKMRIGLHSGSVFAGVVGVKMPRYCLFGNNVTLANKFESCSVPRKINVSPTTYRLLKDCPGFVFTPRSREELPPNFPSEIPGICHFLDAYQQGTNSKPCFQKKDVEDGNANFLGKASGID
T1 sequence (Q02153 1-619): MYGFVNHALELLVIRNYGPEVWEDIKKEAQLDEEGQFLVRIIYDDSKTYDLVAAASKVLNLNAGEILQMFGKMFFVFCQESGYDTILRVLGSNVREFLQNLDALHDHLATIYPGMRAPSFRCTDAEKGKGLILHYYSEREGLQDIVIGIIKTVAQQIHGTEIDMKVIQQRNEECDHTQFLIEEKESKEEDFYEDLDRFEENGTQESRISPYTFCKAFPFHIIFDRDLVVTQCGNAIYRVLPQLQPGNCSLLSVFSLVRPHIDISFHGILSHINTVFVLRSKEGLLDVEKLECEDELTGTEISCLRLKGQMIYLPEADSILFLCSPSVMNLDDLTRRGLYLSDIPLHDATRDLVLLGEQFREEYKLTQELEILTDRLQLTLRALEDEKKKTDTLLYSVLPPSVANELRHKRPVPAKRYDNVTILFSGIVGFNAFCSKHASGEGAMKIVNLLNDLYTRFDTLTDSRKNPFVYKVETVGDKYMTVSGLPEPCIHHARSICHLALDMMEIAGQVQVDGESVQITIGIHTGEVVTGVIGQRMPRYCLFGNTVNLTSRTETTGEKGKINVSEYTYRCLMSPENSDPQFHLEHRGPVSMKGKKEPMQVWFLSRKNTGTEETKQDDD
Experiment: Cell-based sGC functional assay (CASA assay): cGMP generation in CHO-K1/sGC cells, HTRF detection
Details: for Emax: CHO-K1, percent activation relative to standard Compound A in CHO-K1/sGC cells, read-out: % Act.; for EC50: inflection point (IP) of cGMP generation in CHO-K1/sGC cells, 4P fit, activity expressed as percentage of Compound A
Outline: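 cGMP was quantified by HTRF after 1 hr, 37° C exposure of thawed CHO-K1 cells expressing sGC α1/β1 to compound, with or without 1 μM DETA-NO. IBMX (0.5 mM) blocked cGMP breakdown, and DMSO was 2.5% final. Percent of standard Compound A's maximal cGMP was fitted (4P) for inflection point.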

Row | Compound | Emax [%] | EC50 [µM]
1 | CC1(C)C(=O)Nc2nc(-c3cn4c(Br)cnc4c(CCC(F)(F)C(F)(F)F)n3)nc(N)c21 [Example 263, 4-amino-2-(3-bromo-8-(3,3,4,4,4-pentafluorobutyl)imidazo[1,2-a]pyrazin-6-yl)-5,5-dimethyl-5H-pyrrolo[2,3-d]pyrimidin-6(7H)-one] | 20 | 0.314
2 | CC1(c2ccccc2)C(=O)Nc2nc(-c3cn4c(Br)cnc4c(CCC(F)(F)F)n3)nc(N)c21 (centres unmarked) [Example 265B, 4-amino-2-(3-bromo-8-(3,3,3-trifluoropropyl)imidazo[1,2-a]pyrazin-6-yl)-5-methyl-5-phenyl-5H-pyrrolo[2,3-d]pyrimidin-6(7H)-one] | 121 | 0.648
3 | Cc1nc2c(CCC(F)(F)C(F)(F)F)nc(-c3nc(N)c4c(n3)NC(=O)C4(C)c3ccc(F)cc3)cn2c1Br (centres unmarked) [Example 266A, 4-amino-2-(3-bromo-2-methyl-8-(3,3,4,4,4-pentafluorobutyl)imidazo[1,2-a]pyrazin-6-yl)-5-(4-fluorophenyl)-5-methyl-5H-pyrrolo[2,3-d]pyrimidin-6(7H)-one] | 101 | 0.141
4 | CC1(c2ccc(F)cc2)C(=O)Nc2nc(-c3cn4c(N)cnc4c(CCC(F)(F)C(F)(F)F)n3)nc(N)c21 (centres unmarked) [Example 267A, 4-Amino-2-(3-amino-8-(3,3,4,4,4-pentafluorobutyl)imidazo[1,2-a]pyrazin-6-yl)-5-(4-fluorophenyl)-5-methyl-5H-pyrrolo[2,3-d]pyrimidin-6(7H)-one] | 91 | 0.212
5 | CC1(c2ccc(F)cn2)C(=O)Nc2nc(-c3cn4c(N)cnc4c(CCC(F)(F)C(F)(F)F)n3)nc(N)c21 (centres unmarked) [Example 268B, 4-Amino-2-(3-amino-8-(3,3,4,4,4-pentafluorobutyl)imidazo[1,2-a]pyrazin-6-yl)-5-(5-fluoropyridin-2-yl)-5-methyl-5H-pyrrolo[2,3-d]pyrimidin-6(7H)-one] | 79 | 0.338
6 | CC1(c2ccc(Cl)cn2)C(=O)Nc2nc(-c3cn4c(N)cnc4c(CCC(F)(F)C(F)(F)F)n3)nc(N)c21 (centres unmarked) [Example 269A, 4-amino-2-(3-amino-8-(3,3,4,4,4-pentafluorobutyl)imidazo[1,2-a]pyrazin-6-yl)-5-(5-chloropyridin-2-yl)-5-methyl-5H-pyrrolo[2,3-d]pyrimidin-6(7H)-one] | 198 | 5.09
7 | CN(C)C(=O)c1cccc(C2(C)C(=O)Nc3nc(-c4cn5ccnc5c(CCC(F)(F)C(F)(F)F)n4)nc(N)c32)c1 (centres unmarked) [Example 271B, 3-(4-Amino-5-methyl-6-oxo-2-(8-(3,3,4,4,4-pentafluorobutyl)imidazo[1,2-a]pyrazin-6-yl)-6,7-dihydro-5H-pyrrolo[2,3-d]pyrimidin-5-yl)-N,N-dimethylbenzamide] | 95 | 0.622
8 | CC1(C)C(=O)Nc2nc(-c3cn4ccnc4c(Cc4cccc(C#N)c4)n3)nc(N)c21 [Example 272, 3-((6-(4-Amino-5,5-dimethyl-6-oxo-6,7-dihydro-5H-pyrrolo[2,3-d]pyrimidin-2-yl)imidazo[1,2-a]pyrazin-8-yl)methyl)benzonitrile] | 114 | 0.367
9 | CC1(c2ccc(F)cc2)C(=O)Nc2nc(-c3cn4c(C#N)cnc4c(CCC(F)(F)C(F)(F)F)n3)nc(N)c21 (centres unmarked) [Example 273A, 6-(4-Amino-5-(4-fluorophenyl)-5-methyl-6-oxo-6,7-dihydro-5H-pyrrolo[2,3-d]pyrimidin-2-yl)-8-(3,3,4,4,4-pentafluorobutyl)imidazo[1,2-3a]pyrazine-3-carbonitrile] | 81 | 0.061
10 | Cc1nc2c(CCC(F)(F)C(F)(F)F)nc(-c3nc(N)c4c(n3)NC(=O)C4(C)c3ccc(F)cc3)cn2c1C#N (centres unmarked) [Example 274A, 6-(4-amino-5-(4-fluorophenyl)-5-methyl-6-oxo-6,7-dihydro-5H-pyrrolo[2,3-d]pyrimidin-2-yl)-2-methyl-8-(3,3,4,4,4-pentafluorobutyl)imidazo[1,2-a]pyrazine-3-carbonitrile] | 100 | 0.238
11 | CC1(c2ccc(F)cc2)C(=O)Nc2nc(-c3cn4cc(C#N)nc4c(CCC(F)(F)C(F)(F)F)n3)nc(N)c21 (centres unmarked) [Example 275A, 6-(4-Amino-5-(4-fluorophenyl)-5-methyl-6-oxo-6,7-dihydro-5H-pyrrolo[2,3-d]pyrimidin-2-yl)-8-(3,3,4,4,4-pentafluorobutyl)imidazo[1,2-a]pyrazine-2-carbonitrile] | 98 | 0.089
12 | CCC1(c2ccc(F)cc2)C(=O)Nc2nc(-c3cn4c(F)cnc4c(CCC(F)(F)C(F)(F)F)n3)nc(N)c21 (centres unmarked) [Example 276A, 4-Amino-5-ethyl-2-(3-fluoro-8-(3,3,4,4,4-pentafluorobutyl)imidazo[1,2-a]pyrazin-6-yl)-5-(4-fluorophenyl)-5H-pyrrolo[2,3-d]pyrimidin-6(7H)-one] | 80 | 0.022
13 | CC1(c2ccc(Cl)cc2)C(=O)Nc2nc(-c3cn4ccnc4cn3)nc(N3CCC(C(F)(F)F)CC3)c21 (centres unmarked) [Example 280A, 5-(4-chlorophenyl)-2-(imidazo[1,2-a]pyrazin-6-yl)-5-methyl-4-(4-(trifluromethyl)piperdin-1-yl)-5H-pyrrolo[2,3-d]pyrimidin-6(7H)-one] | 102 | 0.124
14 | CC1(c2ccc(Cl)cc2)C(=O)Nc2nc(-c3cn4ccnc4cn3)nc(N3CC(F)(C4CC4)C3)c21 (centres unmarked) [Example 281A, 5-(4-chlorophenyl)-4-(3-cyclopropyl-3-fluoroazetidin-1-yl)-2-(imidazo[1,2-a]pyrazin-6-yl)-5-methyl-5H-pyrrolo[2,3-d]pyrimidin-6(7H)-one] | 120 | 0.102
15 | CC1(c2ccc(Cl)cc2)C(=O)Nc2nc(-c3cn4ccnc4cn3)nc(N3CC(C(F)(F)F)C3)c21 (centres unmarked) [Example 282A, 5-(4-chlorophenyl)-2-(imidazo[1,2-a]pyrazin-6-yl)-5-methyl-4-(3-(trifluromethyl)azetidin-1-yl)-5H-pyrrolo[2,3-d]pyrimidin-6(7H)-one] | 153 | 0.197
16 | CC1(c2ccc(Cl)cc2)C(=O)Nc2nc(-c3cn4ccnc4cn3)nc(NCC3CC3)c21 (centres unmarked) [Example 283A, 5-(4-chlorophenyl)-4-((cyclopropylmethyl)amino)-2-(imidazo[1,2-a]pyrazin-6-yl)-5-methyl-5H-pyrrolo[2,3-d]pyrimidin-6(7H)-one] | 163 | 0.056
17 | CC1(F)CN(c2nc(-c3cn4ccnc4cn3)nc3c2C(C)(c2ccc(Cl)cc2)C(=O)N3)C1 (centres unmarked) [Example 284A, 5-(4-chlorophenyl)-4-(3-fluoro-3-methylazetidin-1-yl)-2-(imidazo[1,2-a]pyrazin-6-yl)-5-methyl-5H-pyrrolo[2,3-d]pyrimidin-6(7H)-one] | 120 | 0.102
18 | CC1(c2ccc(Cl)cc2)C(=O)Nc2nc(-c3cn4ccnc4cn3)nc(NCCCC(F)(F)F)c21 (centres unmarked) [Example 285A, 5-(4-chlorophenyl)-2-(imidazo[1,2-a]pyrazin-6-yl)-5-methyl-4-((4,4,4-trifluorobutyl)amino)-5H-pyrrolo[2,3-d]pyrimidin-6(7H)-one] | 130 | 0.02
19 | CC1(c2ccc(Cl)cc2)C(=O)Nc2nc(-c3cn4ccnc4cn3)nc(NC3CC(F)(F)C3)c21 (centres unmarked) [Example 287A, 5-(4-chlorophenyl)-4-((3,3-difluorocyclobutyl)amino)-2-(imidazo[1,2-a]pyrazin-6-yl)-5-methyl-5H-pyrrolo[2,3-d]pyrimidin-6(7H)-one] | 133 | 0.376
